For assay [1], the system named is NMDA induced convulsions in mice. As to the kind of experiment: Inhibition of NMDA induced convulsions in the mouse (procedure of Chiamulera C et al.). It is filed as in vivo. The settings on record: read-out: ED50 (dose required to protect 50% of the animals from the convulsive action of the NMDA). An excerpt:
In this test the ability of the compound when administered iv to inhibit the generalized seizures induced by an intracerebroventricular injection of NMDA in mice was examined at a number of dose levels.

Assay [2] addresses T1, strychnine insensitive glycine binding site located on the NMDA receptor complex (Rattus norvegicus, UniProt P35439).
T1 construct: determined using the procedure of Kishimoto H. et al J. Neurochem 1981, 37, 1015-1024; from tissue
Kind of assay: biochemical.

[3] abbreviates: mice, compound iv, generalized seizures induced by intracerebroventricular injection of NMDA.
[4] abbreviates: strychnine insensitive glycine binding site, read-out: pKi (converted).

Results on 19 compounds are retold here after patent publication US5977136A, “Tetrahydroquinolines as NMDA antagonists” (Glaxo Wellcome SpA, priority 1995, dated 1999).

Where two headings read alike, the source gives them in different places.

What is called ED50 is the dose at which the effect has come halfway, by size or by number of responders. Consider `O=C(/C=C1\CC(C(=O)[O-])Nc2cc(Cl)cc(Cl)c21)Nc1ccccc1.[Na+]` (racemic), for which, in assay [1] (iv), the ED50 is 1 mg/kg.
In assay [2], `O=C(/C=C1\CC(C(=O)[O-])Nc2cc(Cl)ccc21)Nc1ccccc1.[Na+]` (racemic) [Example 2, (+/-)(E)7-Chloro-4-Phenylcarbamoylmethylene-1,2,3,4-Tetrahydro-Quinoline-2- Carboxylic Acid Sodium Salt] gave a Ki of 39.8 nM. Further, the ED50 in assay [1] (setting [3]) is 0.2 mg/kg.
With `CC(=O)Nc1ccc(NC(=O)/C=C2\CC(C(=O)O)Nc3cc(Cl)cc(Cl)c32)cc1` (racemic) [Example 5, (+/-)(E)-4-(4-Acetylamino-Phenylcarbamoylmethylene)-5,7-Dichloro-1,2,3,4-Tetrahydro-Quinoline-2-Carboxylic Acid], in assay [2] (setting [4]), the Ki was 7.94 nM. Also, the ED50 in assay [1] (setting [3]) stood at 0.2 mg/kg.
On to `CC(=O)Nc1cccc(NC(=O)/C=C2\CC(C(=O)O)Nc3cc(Cl)cc(Cl)c32)c1` (racemic) [Example 6, (+/-)(E)-4-(3-Acetylamino-Phenylcarbamoylmethylene)-5,7-Dichloro-1,2,3,4-Tetrahydro-Quinoline-2-Carboxylic Acid], for which the Ki in assay [2] (setting [4]) was 15.8 nM.
On the same count and under the same terms, the same measure for `O=C(/C=C1\CC(C(=O)O)Nc2cc(Cl)cc(Cl)c21)Nc1cccc(Cl)c1` (racemic) [Example 7, (+/-)(E)-5,7-Dichloro-4-[3-(Chloro)Phenylcarbamoylmethylene]-1,2,3,4-Tetrahydro-Quinoline-2-Carboxylic Acid]: 39.8 nM.
Still for that read-out and setting: the same measure for `Nc1ccc(NC(=O)/C=C2\CC(C(=O)O)Nc3cc(Cl)cc(Cl)c32)cc1` (racemic) [Example 8, (+/-)(E)-4-(4-Amino-Phenylcarbamoylmethylene)-5,7-Dichloro-1,2,3,4-Tetrahydro-Quinoline-2-Carboxylic Acid]: 15.8 nM.
On to `NC(=O)NCc1ccc(NC(=O)/C=C2\CC(C(=O)O)Nc3cc(Cl)cc(Cl)c32)cc1` (racemic) [Example 9, (+/-)(E)-5,7-Dichloro-4-[4(Ureidomethyl)Phenylcarbamoylmethylene]-1,2,3,4-Tetrahydro-Quinoline-2-Carboxylic Acid], for which the Ki in assay [2] (setting [4]) is 3.98 nM.
In the case of `O=CNCc1ccc(NC(=O)/C=C2\CC(C(=O)O)Nc3cc(Cl)cc(Cl)c32)cc1` (racemic) [Example 10, (+/-)(E)-5,7-Dichloro-4-[4(Formylaminomethyl)Phenylcarbomoylmethylene]-1,2,3,4-Tetrahydro-Quinoline-2-Carboxylic Acid], the Ki in assay [2] (setting [4]) was 5.01 nM.
The same measure, in the same setting: the same measure for `CC(=O)NCc1ccc(NC(=O)/C=C2\CC(C(=O)O)Nc3cc(Cl)cc(Cl)c32)cc1` (racemic) [Example 11, (+/-)(E)-5,7-Dichloro-4-[4(Acetylaminomethyl)Phenylcarbomoylmethylene]-1,2,3,4-Tetrahydro-Quinoline-2-Carboxylic Acid]: 5.01 nM.
Same read-out and setting: as for `CC(C)C(=O)Nc1ccc(NC(=O)/C=C2\CC(C(=O)O)Nc3cc(Cl)cc(Cl)c32)cc1` (racemic) [Example 12, (+/-)(E)-5,7-Dichloro-4-[4(Isobutyrylamino)Phenylcarbomoylmethylene]-1,2,3,4-Tetrahydro-Quinoline-2-Carboxylic Acid], the figure is 15.8 nM; as for `CC(C)C(=O)NCc1ccc(NC(=O)/C=C2\CC(C(=O)O)Nc3cc(Cl)cc(Cl)c32)cc1` (racemic) [Example 13], 15.8 nM.
For the compound `O=C(/C=C1\CC(C(=O)O)Nc2cc(Cl)cc(Cl)c21)Nc1ccc(CN2CCOCC2)cc1` (racemic) [Example 14, (+/-)(E)-5,7-Dichloro-4-(4-Morpholin-4-Ylmethyl-Phenylcarbamoylmethylene)-1,2,3,4-Tetrahydro-Quinoline-2-Carboxylic Acid], the Ki in assay [2] (setting [4]) is 7.94 nM.
As for `O=C(O)Cc1ccc(NC(=O)/C=C2\CC(C(=O)O)Nc3cc(Cl)cc(Cl)c32)cc1` (racemic) [Example 15, (+/-)(E)-4-(4-Carboxymethyl-Phenylcarbamoylmethylene)-5,7-Dichloro-1,2,3,4-Tetrahydro-Quinoline-2-Carboxylic Acid], the Ki in assay [2] (setting [4]) was 19.1 nM.
Same read-out and setting: as for `NC(=O)Cc1ccc(NC(=O)/C=C2\CC(C(=O)O)Nc3cc(Cl)cc(Cl)c32)cc1` (racemic) [Example 16, (+/-)(E)-5,7-Dichloro-4-(4-Carbamoylmethyl-Phenylcarbamoylmethylene)-1,2,3,4-Tetrahydro-Quinoline-2-Carboxylic Acid], the figure is 6.61 nM; as for `CC(C)C(=O)NCCc1ccc(NC(=O)/C=C2\CC(C(=O)O)Nc3cc(Cl)cc(Cl)c32)cc1` (racemic) [Example 17, (+/-)(E)-5,7-Dichloro-4-[4-(2-Isobutyrylamino-Ethyl)Phenylcarbamoylmethylene]-1,2,3,4-Tetrahydro-Quinoline-2-Carboxylic Acid], 12.6 nM.
Still for that read-out and setting: as for `CC(=O)NCCc1ccc(NC(=O)/C=C2\CC(C(=O)O)Nc3cc(Cl)cc(Cl)c32)cc1` (racemic) [Example 18, (+/-)(E)-5,7-Dichloro-4-[4-(2-Acetylamino-Ethyl)Phenylcarbamoylmethylene]-1,2,3,4-Tetrahydro-Quinoline-2-Carboxylic Acid], the figure is 12.6 nM; as for `CC(C)CC(=O)Nc1ccc(NC(=O)/C=C2\CC(C(=O)O)Nc3cc(Cl)cc(Cl)c32)cc1` (racemic) [Example 19, (+/-)(E)-5,7-Dichloro-4-[4-(3-Methyl-Butyrylamino)-Phenylcarbamoylmethylene]-1,2,3,4-Tetrahydro-Quinoline-2-Carboxylic Acid], 18.6 nM; as for `O=C(/C=C1\CC(C(=O)O)Nc2cc(Br)cc(Br)c21)Nc1ccccc1` (racemic) [Example 21, (+/-)-(E)-5,7-Dibromo-4-Phenylcarbamoylmethylene-1,2,3,4-Tetrahydroquinoline-2-Carboxylic Acid], 26.3 nM.
On the same count and under the same terms, as for `O=C(/C=C1\CC(C(=O)[O-])Nc2cc(Cl)cc(Cl)c21)Nc1ccccc1.[Na+]` (racemic) [Sodium Salt], the figure is 6.31 nM.
